Read-outs that look alike come from different tables or passages of the source.
Key:
[1] = target: T1, AR-TIF2 PPI (Homo sapiens, UniProt P10275); test: AR-TIF2 PPI biosensor (PPIB) HCS assay, disruption of pre-formed AR-TIF2 PPI complexes; type: cell-based; details: U-2 OS cells, 25 nM DHT 90 min prior to compounds for 3 h
T1 construct: expressed in transfected cells; host or cells: U-2 OS osteosarcoma cells, co-infected with recombinant adenoviruses
T1 sequence (P10275 663-920 limits assumed): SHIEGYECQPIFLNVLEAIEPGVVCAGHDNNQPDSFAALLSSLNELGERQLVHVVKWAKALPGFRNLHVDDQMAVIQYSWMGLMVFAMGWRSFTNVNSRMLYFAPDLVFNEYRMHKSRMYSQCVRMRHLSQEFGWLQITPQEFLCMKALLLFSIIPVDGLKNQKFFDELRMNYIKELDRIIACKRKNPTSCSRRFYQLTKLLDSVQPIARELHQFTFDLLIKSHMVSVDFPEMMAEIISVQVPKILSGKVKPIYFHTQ
Description: Daughter plates containing 2 μL of the serially diluted compounds in DMSO were prepared and replicated from 384-well serial dilution master plates using a Janus MDT platform outfitted with a 384-well transfer head. Aluminum adhesive plate seals were applied, and plates were stored at −20 °C. For bioassay testing, daughter plates were withdrawn from −20 °C storage, thawed to ambient temperature, and centrifuged for 1 min at 100 × g, and plate seals were removed before 38 μL of serum-free media (SFM) was transferred into wells using a Matrix pipettor (ThermoFisher, Waltham, MA), to generate an intermediate stock concentration of validation compounds ranging from 0.977 to 500 μM (5.0% DMSO). Diluted compounds were mixed by repeated aspiration and dispensation using a 384-well P30 dispensing head on the Janus MDT platform and then, 5 μL of diluted compounds was transferred to assay plate wells to provide a final concentration range from 0.0977 to 50 μM (0.5% DMSO).
The AR-TIF2 PPIB HCS assay was performed in U-2 OS osteosarcoma cells as described previously. Briefly, U-2 OS cells were coinfected with recombinant adenovirus biosensor expression constructs and seeded at 2500 cells per well in 384-well collagen-coated microplates (Greiner BioOne #781956) and plates were incubated overnight at 37°C in 5% CO2 and 95% humidity. […] After the appropriate time, assay plates were fixed by transfer of 50 μL of pre-warmed (37°C) 7.4% formaldehyde and 2 μg/mL Hoechst 33342 in PBS and incubation at room temperature for 30 min. Liquid was aspirated, plates were washed twice with 85 μL PBS, leaving the final wash in the plate. Plates were sealed with adhesive aluminum plate seals, and fluorescent images of three fields of view were acquired in the DAPI (Hoechst stained nuclei), FITC (TIF2-GFP) and Texas Red (AR-RFP) channels on an ImageXpress Micro (IXM) automated HCS platform (Molecular Devices LLC, Sunnyvale, CA) using a 10X Plan Fluor 0.3 NA objective. Images were analyzed using the Translocation Enhanced (TE) image analysis module of the MetaXpress software as described previously.
(§1) In 384-well assays, DMSO minimum (n = 32) and maximum (n = 32) plate control wells were utilized to calculate signal-to-background ratios (S:B) and Z’-factor coefficient assay performance quality control statistics, and to normalize the signals of compound treated wells and to represent 0% and 100% respectively. For the 96-well AR-LBD H^3-DHT radioligand binding assay, eight minimum and maximum plate control wells were utilized to normalize the data. For the PC cell line growth inhibition assays we used the DMSO control data from the T0 and T72 assay plates to assess the dynamic range of the T0 to T72 cell growth, and to calculate S:B ratios and Z’-factor coefficient statistics for the assay signal window (T0 to T72). To normalize the 72 h compound exposure PC growth inhibition data, the signals from the compound treated wells were processed and expressed as% of the T72 DMSO plate controls. IC50 and GI50 values for each of the bioassays were calculated using Graph-Pad Prism 9 software to plot and fit data to curves using the Sigmoidal dose response variable slope equation Y = Bottom + [Top-Bottom]/ [1 + 10^^(LogEC50-X)*HillSlope].

[2] = test system: C4–2 cells; test: Prostate cancer cell line growth inhibition assay, C4–2; type: cell-based; details: read-out: C4–2 GI50 (AR +)
Description: The PC-3, DU-145, LNCaP, C4–2, and 22Rv1 PC cell line growth inhibition assays have been described previously. On day 1, each PC cell line was harvested, counted, and seeded into two 384-well assay plates, a time zero (T0) and a time 72 h (T72) plate. PC cell lines were all seeded at 1000 cells per well in 45 μL of tissue culture media in uncoated white clear bottom 384-well assay plates (VWR, # 82050–076) using a Matrix electronic multichannel pipette (Thermo Fisher Scientific, Waltham, MA) and cultured overnight at 37 °C, 5% CO2, and 95% humidity. On day 2, 25 μL of the Cell Titer Glo (CTG) (Promega Corporation, Madison, WI) detection reagent was dispensed into the wells of the T0 assay plate using a Matrix electronic multichannel pipette, and the RLUs were captured on the SpectraMax M5e (Molecular Devices LLC, Sunnyvale, CA) microtiter plate reader. Also on day 2, 5 μL of compounds were transferred into the test wells of the T72 384-well assay plates which were returned to the incubator for 72 h. Control wells received DMSO alone. On day 5, 25 μL of the CTG detection reagent was dispensed into the wells of the T72 assay plate using a Matrix electronic multichannel pipette, and the RLU’s were captured on the SpectraMax M5e microtiter plate reader platform.
as §1

Structure (SMILES)	IC50 [1] [µM]	GI50 ([2]; C4-2, 72 h) [µM]	IC50 ([1]; listed as S1-3) [µM]	GI50 ([2]; 72 h) [µM]
Cc1ccccc1-c1cc(O)c2c(c1)CN(c1nc(C(N)=O)cs1)CCO2 [S1–1]	26.6	31.7	–	–
Cc1ccccc1-c1cc(O)c2c(c1)CN(c1nccs1)CCO2 [S1–3]	63.1	–	63	45.5
Cc1nsc(NC(=O)N2CCC(Sc3ccccc3C)CC2)n1 [S2–6]	5.8	14.1	–	–
Cc1c(-c2ccccc2F)[nH]c2ccc(CNC(=O)CCc3cn[nH]c3)cc12 [S3–11]	29.1	7.93	–	–
Cc1c(-c2ccccc2F)[nH]c2ccc(CNC(=O)CCc3cnccn3)cc12 [S3–12]	26.7	1.92	–	–
CC(=O)NCCC(=O)NCc1ccc2[nH]c(-c3ccccc3F)c(C)c2c1 [S3–13]	41.3	69.8	–	–
Cc1c(-c2ccccc2F)[nH]c2ccc(CNC(=O)c3ccc(CO)o3)cc12 [S3–14]	18	33	–	–
Cc1c(-c2ccc(F)cc2)[nH]c2ccc(CNC(=O)c3ccc(CO)o3)cc12 [S3–15]	26.2	16.8	–	–

— publication PMC12366525, “Characterization of allosteric modulators that disrupt androgen receptor co-activator protein-protein interactions to alter transactivation–Drug leads for metastatic castration resistant prostate cancer” (SLAS discovery : advancing life sciences R & D, 2023)
